Data from patent publication US5418135A, “Method of inhibiting binding of PDGF to a PDGF receptor by biosynthetic PDGF antagonists” (Creative BioMolecules, Inc., priority 1993, dated 1995).

Tested on: PDGF receptor on human foreskin fibroblasts / NIH/3T3 cells
Experiment: Inhibition assay: 3H-thymidine incorporation in cells stimulated with PDGF dimer
Type: cell-based
Method: One method includes the determination of ^3 H-thymidine incorporation in a cell which normally is induced to proliferate in the presence of PDGF, but which simultaneously is exposed to the prospective antagonist and to biologically active PDGF.
Human foreskin fibroblasts are grown from explants of newborn foreskin. NIH/3T3 cells were obtained from S. Aaronson (NCI). Cells are cultured in Dulbecco's modified Eagle's medium (DMEM) supplemented with 10% fetal bovine serum at 37° C. in an atmosphere of 10% CO2 and 90% air.
Cells are grown in 48-well plates to confluence and used for assay 3-4 days later. Different monomeric forms or fragments of PDGF monomers are added to the media, and after 18 hours 10 .xi.g PDGF AA dimer, AB dimer, or BB dimer and 2 .xi.Ci/ml ^3 H-thymidine are added. The cells are incubated an additional 2 hours and washed at 4° C. three times with phosphate-buffered saline (PBS) and five times with 5% trichloroacetic acid (TCA). TCA-insoluble materials are solubilized in 0.1N NaOH/0.1% SDS. The amount of incorporated ^3 H-thymidine is determined with a Beckman liquid scintillation counter.

A: Intact recombinant PDGF A chain monomer from E. coli, Cys residues pyridylethylated to prevent dimerization
inhibition of the proliferative effect of BB dimer (in words) (PDGF BB dimer as stimulus): inhibit the proliferative effect of BB dimer | IC50 (inhibition of PDGF dimer-induced 3H-thymidine incorporation, antagonist added 18 hours before PDGF dimer and 3H-thymidine, read-out: HALF-MAX INHIBITION): 100 nM
